EC50 data for 24 compounds are collected here from US9133158B2, “Bicyclic dihydroisoquinoline-1-one derivatives” (Hoffmann-La Roche Inc., priority 2011, dated 2015).

In one test the target is T1, human CYP11B1 (Homo sapiens, UniProt P15538).
T1 construct: expressed in transfected cells
T1 sequence (P15538 25-503): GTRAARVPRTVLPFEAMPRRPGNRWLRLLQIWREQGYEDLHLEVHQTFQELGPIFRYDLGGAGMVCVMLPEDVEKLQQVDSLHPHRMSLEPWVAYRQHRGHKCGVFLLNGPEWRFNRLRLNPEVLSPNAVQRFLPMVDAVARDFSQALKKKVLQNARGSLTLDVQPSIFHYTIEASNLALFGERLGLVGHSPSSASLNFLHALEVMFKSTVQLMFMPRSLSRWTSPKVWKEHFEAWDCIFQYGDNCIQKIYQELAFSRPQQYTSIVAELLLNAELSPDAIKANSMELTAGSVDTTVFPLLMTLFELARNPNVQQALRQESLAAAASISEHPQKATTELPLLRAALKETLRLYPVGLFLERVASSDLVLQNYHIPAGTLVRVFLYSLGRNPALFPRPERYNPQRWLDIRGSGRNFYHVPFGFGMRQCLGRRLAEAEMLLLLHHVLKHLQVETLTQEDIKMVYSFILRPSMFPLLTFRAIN
The test is described as follows: G-402 cellular enzyme assay, human CYP11B1 (cortisol release, HTRF). As to conditions: G-402 cells, 1 μM Deoxycortisol. Format: cell-based. Summed up:
(§1)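 Steroid output from supernatants, quantified by HTRF as cortisol for CYP11B1 or aldosterone for CYP11B2, gave EC50 values by least-squares 4-parameter MMF fitting against inhibitor concentration. Stably transfected G-402 cells carrying the human enzyme received 1 μM deoxycortisol or 1 μM deoxycorticosterone respectively, 16 h, DMEM/F12 with 2.5% charcoal-stripped FCS.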

A further test deals with T2, human CYP11B2 (Homo sapiens, UniProt P19099).
T2 construct: expressed in transfected cells
T2 sequence (P19099 25-503): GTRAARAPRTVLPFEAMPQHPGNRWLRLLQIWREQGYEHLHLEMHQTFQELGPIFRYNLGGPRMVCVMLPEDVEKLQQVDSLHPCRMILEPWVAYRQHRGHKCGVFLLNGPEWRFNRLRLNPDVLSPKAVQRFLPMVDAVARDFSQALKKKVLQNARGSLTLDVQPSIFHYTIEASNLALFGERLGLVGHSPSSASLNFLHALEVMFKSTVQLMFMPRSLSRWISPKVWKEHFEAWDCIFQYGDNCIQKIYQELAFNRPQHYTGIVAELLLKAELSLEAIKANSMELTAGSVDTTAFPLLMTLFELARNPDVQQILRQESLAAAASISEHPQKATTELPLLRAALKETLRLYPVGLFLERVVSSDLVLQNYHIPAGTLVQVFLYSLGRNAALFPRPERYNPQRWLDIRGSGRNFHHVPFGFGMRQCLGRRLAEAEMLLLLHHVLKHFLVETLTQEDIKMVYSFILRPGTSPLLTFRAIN
The test is described as follows: G-402 cellular enzyme assay, human CYP11B2 (aldosterone release, HTRF). The class given is cell-based. As to conditions: G-402 cells, 1 μM Deoxycorticosterone. Summed up: as §1

Molecules are shown by their SMILES.

Take `O=C1c2ccc(Cl)cc2CCN1c1cncc(C(O)c2ccc(F)c(F)c2)c1` (stereo not drawn) [Example 31, 6-Chloro-2-{5-[(3,4-difluoro-phenyl)-hydroxy-methyl]-pyridin-3-yl}-3,4-dihydro-2H-isoquinolin-1-one]: the results for the EC50 at human CYP11B1 and on human CYP11B2 were 328 nM and 50.2 nM, respectively.

Take `CC1(C)c2ccc(F)cc2C(=O)N1c1cncc(CNS(C)(=O)=O)c1` [Example 406, N-[5-(5-Fluoro-1,1-dimethyl-3-oxo-1,3-dihydro-isoindol-2-yl)-pyridin-3-ylmethyl]-methane-sulfonamide]: the results for the EC50 at human CYP11B1 and at human CYP11B2 were 3150 nM and 165 nM, respectively.

As to `COC(c1cncc(N2CCc3cc(Cl)ccc3C2=O)c1)C1CC1` (stereo not drawn) [Example 21, 6-Chloro-2-[5-(cyclopropyl-methoxy-methyl)-pyridin-3-yl]-3,4-dihydro-2H-isoquinolin-1-one], the results for the EC50 at human CYP11B1 and on human CYP11B2 were 263 nM and 41.5 nM, respectively.

For `CCS(=O)(=O)NC1CCc2c1cncc2N1Cc2cc(Cl)ccc2C1=O` (single isomer, unassigned) [Example 336, Ethanesulfonic acid [(R or S)-4-(5-chloro-1-oxo-1,3-dihydro-isoindol-2-yl)-6,7-dihydro-5H-[2]pyrindin-7-yl]-amide], the EC50 on human CYP11B1 was 30000 nM; at human CYP11B2, 949 nM.

In the case of `O=C1c2ccc(Cl)cc2CCN1c1cncc(N2CC[C@@H](O)C2)c1` [Example 137, 6-Chloro-2-[5-((R)-3-hydroxy-pyrrolidin-1-yl)-pyridin-3-yl]-3,4-dihydro-2H-isoquinolin-1-one], the EC50 at human CYP11B1 was found to be 108 nM; on human CYP11B2, 10.1 nM.

In the case of `O=C1c2ccc(Cl)cc2CCN1c1cncc(-c2ccc(F)c(F)c2)c1` [Example 232, 6-Chloro-2-[5-(3,4-difluoro-phenyl)-pyridin-3-yl]-3,4-dihydro-2H-isoquinolin-1-one], the concentration giving a half-maximal response (EC50) at human CYP11B1 came to 1350 nM; on human CYP11B2, 26.6 nM.

For the compound `O=C1c2ccc(Cl)cc2C(C2CC2)N1c1cccnc1` (stereo not drawn) [Example 301, 5-Chloro-3-cyclopropyl-2-pyridin-3-yl-2,3-dihydro-isoindol-1-one], the EC50 was determined as 32500 nM at human CYP11B1 and 161 nM at human CYP11B2.

Consider `O=C1c2ccc(Cl)cc2CCN1c1cccnn1` [Example 52, 6-Chloro-2-pyridazin-3-yl-3,4-dihydro-2H-isoquinolin-1-one], for which the results for the 50% effective concentration (EC50) at human CYP11B1 and on human CYP11B2 were 2460 nM and 382 nM, respectively.

Consider `CC(O)c1cncc(N2C(=O)c3ccc(Cl)cc3C2C)c1` (stereo not drawn) [Example 122, 5-Chloro-2-[5-(1-hydroxy-ethyl)-pyridin-3-yl]-3-methyl-2,3-dihydro-isoindol-1-one], for which the 50% effective concentration (EC50) stood at 180 nM on human CYP11B1 and 42.3 nM at human CYP11B2.

With `CC[C@H]1c2cc(Cl)ccc2C(=O)N1c1cncc2c1CC[C@@H]2NC(C)=O` (single isomer, unassigned) [Example 345, (−)-N—[(S or R)-4-((S or R)-5-Chloro-3-ethyl-1-oxo-1,3-dihydro-isoindol-2-yl)-6,7-dihydro-5H-[2]pyrindin-7-yl]-acetamide], the half-maximal effective concentration (EC50) turned out to be 2000 nM at human CYP11B1 and 49.4 nM at human CYP11B2.

`O=C1c2ccc(Cl)cc2CCN1c1cncc(NCC(F)(F)F)c1` [Example 223, 6-Chloro-2-[5-(2,2,2-trifluoro-ethylamino)-pyridin-3-yl]-3,4-dihydro-2H-isoquinolin-1-one]: the values for the EC50 on human CYP11B1 and on human CYP11B2 were 1420 nM and 116 nM, respectively.

As to `CC(C)c1nccn1Cc1cncc(N2Cc3cc(Cl)ccc3C2=O)c1` [Example 109, 5-Chloro-2-[5-(2-isopropyl-imidazol-1-ylmethyl)-pyridin-3-yl]-2,3-dihydro-isoindol-1-one], the figures for the EC50 at human CYP11B1 and at human CYP11B2 were 1350 nM and 229 nM, respectively.

Take `CC(Nc1cccc(F)c1)c1cncc(N2CCc3cc(Cl)ccc3C2=O)c1` (stereo not drawn) [Example 277, 6-Chloro-2-{5-[1-(3-fluoro-phenylamino)-ethyl]-pyridin-3-yl}-3,4-dihydro-2H-isoquinolin-1-one]: the figures for the EC50 at human CYP11B1 and on human CYP11B2 were 163 nM and 64.1 nM, respectively.

Turning to `O=C1c2ccc(Cl)cc2CCN1c1cncc(CN2CCC(F)(F)CC2)c1` [Example 168, 6-Chloro-2-[5-(4,4-difluoro-piperidin-1-ylmethyl)-pyridin-3-yl]-3,4-dihydro-2H-isoquinolin-1-one], the values for the EC50 on human CYP11B1 and on human CYP11B2 were 47.5 nM and 3.4 nM, respectively.

Take `CC(C)C(=O)Nc1cncc(N2CCc3cc(Cl)ccc3C2=O)c1` [Example 247, N-[5-(6-Chloro-1-oxo-3,4-dihydro-1H-isoquinolin-2-yl)-pyridin-3-yl]-isobutyramide]: the 50% effective concentration (EC50) was 7470 nM at human CYP11B1 and 4580 nM on human CYP11B2.

As to `COCc1cncc(N2CCc3cc(Cl)ccc3C2=O)c1` [Example 193, 6-Chloro-2-(5-methoxymethyl-pyridin-3-yl)-3,4-dihydro-2H-isoquinolin-1-one], the 50% effective concentration (EC50) at human CYP11B1 stood at 217 nM; on human CYP11B2, 20.1 nM.

Turning to `CC(C)Oc1cncc(N2C(=O)c3ccc(Cl)cc3C2(C)C)c1` [Example 304, 5-Chloro-2-(5-isopropoxy-pyridin-3-yl)-3,3-dimethyl-2,3-dihydro-isoindol-1-one], the half-maximal effective concentration (EC50) amounted to 78.1 nM at human CYP11B1 and 2.4 nM at human CYP11B2.

Turning to `CC1(C)c2nc(Cl)ccc2C(=O)N1c1cncc(CNc2cc[nH]n2)c1` [Example 383, 2-Chloro-7,7-dimethyl-6-{5-[(1H-pyrazol-3-ylamino)-methyl]-pyridin-3-yl}-6,7-dihydro-pyrrolo[3,4-b]pyridin-5-one], the EC50 at human CYP11B1 stood at 771 nM; on human CYP11B2, 21 nM.

Take `O=C1c2ccc(Cl)cc2CCN1c1cncc(Cn2ccnc2C(F)(F)F)c1` [Example 189, 6-Chloro-2-[5-(2-trifluoromethyl-imidazol-1-ylmethyl)-pyridin-3-yl]-3,4-dihydro-2H-isoquinolin-1-one]: the concentration for a half-maximal effect (EC50) at human CYP11B1 came to 710 nM; at human CYP11B2, 55.3 nM.

`CCC(=O)NC1CCCc2c1cncc2N1CCc2cc(Cl)ccc2C1=O` (single isomer, unassigned) [Example 328, N-((R or S)-6-Chloro-1-oxo-3,4,5′,6′,7′,8′-hexahydro-1H-[2,4′]biisoquinolinyl-8′-yl)-propionamide]: the values for the concentration giving a half-maximal response (EC50) at human CYP11B1 and at human CYP11B2 were 18400 nM and 173 nM, respectively.

Turning to `O=C1c2ccc(Cl)cc2CN1c1cccnc1` [Example 108, 5-Chloro-2-pyridin-3-yl-2,3-dihydro-isoindol-1-one], the EC50 on human CYP11B1 came to 9780 nM; at human CYP11B2 it was 163 nM.

In the case of `CCC(=O)NCc1cncc(N2C(=O)c3ccc(Cl)cc3C2CC)c1` (single isomer, unassigned) [Example 399, N-[5-((S or R)-5-Chloro-3-ethyl-1-oxo-1,3-dihydro-isoindol-2-yl)-pyridin-3-ylmethyl]-propionamide], the half-maximal effective concentration (EC50) on human CYP11B1 was 11300 nM; at human CYP11B2, 313 nM.

On to `CC(=O)NC1CCCc2c1cncc2N1C(=O)c2ccc(Cl)cc2C1(C)C` (single isomer, unassigned) [Example 467, N—[(R or S)-4-(6-Chloro-1,1-dimethyl-3-oxo-1,3-dihydro-isoindol-2-yl)-5,6,7,8-tetrahydro-isoquinolin-8-yl]-acetamide], for which the EC50 on human CYP11B1 was determined as 2180 nM; on human CYP11B2, 28.8 nM.

On to `O=C1c2ccc(Cl)cc2CCN1c1cncc(CN2CCC[C@@H]2CO)c1` [Example 150, 6-Chloro-2-[5-((R)-2-hydroxymethyl-pyrrolidin-1-ylmethyl)-pyridin-3-yl]-3,4-dihydro-2H-isoquinolin-1-one], for which the EC50 is 5320 nM at human CYP11B1 and 227 nM on human CYP11B2.
